For series [1], the target named is Coagulation factor X (Homo sapiens, UniProt P00742). The experiment in a line: Inhibition of human factor 10a using Z-D-Arg-Gly-Arg-p-NA as substrate by chromogenic assay.
Series [2] addresses Prothrombin (Bos taurus, UniProt P00735). The series is described as follows: Inhibition of bovine thrombin using D-Phe-Pip-Arg-p-NA as substrate by chromogenic assay.
The nature of series [3]: 1-octanol-water partition coefficient, log P of the neutral form compound by HILIC analysis. It is filed as physicochemical.
Series [4] relates to Plasma. The series is described as follows: Anticoagulant activity in human plasma assessed as concentration required to double activated […] time. It is filed as functional.
In series [5] the target is Chymotrypsinogen A (Bos taurus, UniProt P00766). The series is described as follows: Inhibition of bovine alpha-chymotrypsin using N-succinyl-Ala-Ala-Pro-Phe-p-NA as substrate by chromogenic assay.
The nature of series [6]: Permeability of the compound at pH 6.8 by PAMPA assay. It is filed as ADME. (In PAMPA a lipid-coated filter parts donor from acceptor wells.)
The nature of series [7]: Dissociation constant, pKa of the compound by potentiometric titration. Type of series: physicochemical.
Series [8] has as its target T1, Neutrophil elastase (Homo sapiens, UniProt P08246).
T1 sequence (P08246 whole entry): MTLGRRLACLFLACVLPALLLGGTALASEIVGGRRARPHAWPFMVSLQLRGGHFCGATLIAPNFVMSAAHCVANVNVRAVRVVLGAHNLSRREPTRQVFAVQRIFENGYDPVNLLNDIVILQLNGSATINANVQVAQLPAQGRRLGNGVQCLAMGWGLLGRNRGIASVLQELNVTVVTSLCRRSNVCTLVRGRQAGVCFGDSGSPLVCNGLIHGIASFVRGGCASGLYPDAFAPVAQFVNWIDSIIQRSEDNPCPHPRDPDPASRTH
The experiment in a line: Inhibition of human neutrophil leukocyte elastase using N-(methoxysuccinyl)-Ala-Ala-Pro-Val-p-NA as substrate by chromogenic assay.

Series [9] can be described thus: Inhibition of bovine pancreatic trypsin using D-Phe-Pip-Arg-p-NA as substrate by chromogenic assay. More on the design: species or system Bos taurus.
Series [10] deals with T2, Coagulation factor VII (Homo sapiens, UniProt P08709).
T2 sequence (P08709 whole entry): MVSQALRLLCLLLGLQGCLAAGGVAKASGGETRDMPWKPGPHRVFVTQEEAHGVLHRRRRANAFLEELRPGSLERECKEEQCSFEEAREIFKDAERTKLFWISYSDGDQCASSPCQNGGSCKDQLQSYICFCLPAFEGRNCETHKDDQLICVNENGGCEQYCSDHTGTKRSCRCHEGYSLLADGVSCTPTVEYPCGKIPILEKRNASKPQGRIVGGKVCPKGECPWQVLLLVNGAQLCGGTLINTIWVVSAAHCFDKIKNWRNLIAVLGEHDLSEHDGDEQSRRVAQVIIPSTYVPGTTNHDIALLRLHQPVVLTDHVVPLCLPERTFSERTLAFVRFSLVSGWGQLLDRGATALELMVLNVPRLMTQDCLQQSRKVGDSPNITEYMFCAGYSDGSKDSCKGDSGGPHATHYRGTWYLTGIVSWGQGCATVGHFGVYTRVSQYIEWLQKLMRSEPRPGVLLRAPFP
The experiment in a line: Inhibition of human recombinant factor 7a using spectrozyme as substrate by chromogenic assay.

Series [11] addresses Prothrombin (Homo sapiens, UniProt P00734). The experiment in a line: Inhibition of human thrombin using D-Phe-Pip-Arg-p-NA as substrate by chromogenic assay.
Series [12] in a line: Permeability of the compound at pH 8 by PAMPA assay. Type of series: ADME.
Series [13] in a line: 1-octanol-water partition coefficient, log D of the compound. It is filed as physicochemical.

The record followed here is ChEMBL document CHEMBL2440069, “Synthesis and biological evaluation of direct thrombin inhibitors bearing 4-(piperidin-1-yl)pyridine at the P1 position with potent anticoagulant activity” (J Med Chem, 2013).

As a reminder, the logP is a log measure of how a compound divides between an organic and an aqueous phase. One may read the pKa as the negative logarithm of the acid dissociation constant. Higher therefore signals a weaker acid or stronger base. Usually logD stands for lipophilicity at a set pH, counting ionised and neutral species. A high value points to a more lipophilic compound.

Chain of Coagulation factor X (P00742 41-179 limits assumed): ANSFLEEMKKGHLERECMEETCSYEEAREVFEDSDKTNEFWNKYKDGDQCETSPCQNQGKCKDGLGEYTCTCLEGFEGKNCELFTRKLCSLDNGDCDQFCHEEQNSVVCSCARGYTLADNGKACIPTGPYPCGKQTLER
Chain of Coagulation factor X (P00742 235-488 limits assumed): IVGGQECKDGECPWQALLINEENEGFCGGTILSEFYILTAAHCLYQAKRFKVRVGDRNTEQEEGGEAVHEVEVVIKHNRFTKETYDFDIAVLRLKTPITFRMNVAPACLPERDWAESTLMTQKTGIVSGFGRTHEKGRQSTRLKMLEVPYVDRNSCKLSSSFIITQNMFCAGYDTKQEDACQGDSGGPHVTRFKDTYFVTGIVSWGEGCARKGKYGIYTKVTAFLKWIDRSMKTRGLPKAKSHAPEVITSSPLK

Consider `O=C(Nc1cccc(OCc2ccccc2)c1)C1CCN(c2ccncc2)CC1`, for which the Ki in series [1] stood at 7.46 µM; in [2] (read-out: Ki), 39.5 µM.
Compound `O=C(Nc1cccc(OCc2ccc3c(c2)OCO3)c1)C1CCN(c2ccncc2)CC1` registered a log partition coefficient (logP) in series [3] of 4.9. Moreover, the 2aPTT in series [4] is greater than 200 µM. Moreover, the Ki in [5] was greater than 250 µM; in [1], 3.72 µM; in [2] (read-out: Ki), 0.053 µM. The “log Pe” value in series [6] was “impermeable”. The compound also had a pKa in series [7] of 9.1.
`CN(C)Cc1ccc(COc2cccc(NC(=O)C3CCN(c4ccncc4)CC3)c2)cc1`: the Ki in series [1] came to 12.2 µM; in series [2] (read-out: Ki), 8.19 µM.
For `O=C(Nc1cccc(OCc2ccc([N+](=O)[O-])cc2)c1)C1CCN(c2ccncc2)CC1`, the results for the Ki in series [1] and in [2] (read-out: Ki) were 6 µM and 5.85 µM, respectively.
Turning to `O=C(Nc1cccc(OCc2cccc(Cl)c2)c1)C1CCN(c2ccncc2)CC1`, the values for the Ki in series [1] and in [2] (read-out: Ki) were greater than 250 µM and 0.156 µM, respectively.
In turn, `COc1ccc(COc2cccc(NC(=O)C3CCN(c4ccncc4)CC3)c2)cc1OC` yielded a logP in series [3] of 4.9. In [4], the 2aPTT is 154 µM. In addition, the Ki in [8] is greater than 250 µM; in series [9], 27 µM; in series [5], 71.5 µM; in [10] it was greater than 250 µM; in series [11] it was 0.755 µM; in series [1] it was 0.606 µM. The Ki in [2] (read-out: Ki) came out at 0.031 µM. Besides, the pKa in [7] is 9.2.
Take `Fc1cccc(COc2cccc(NCC3CCN(c4ccncc4)CC3)c2)c1`: the Ki in [1] is 3.83 µM; in series [2] (read-out: Ki), greater than 250 µM.
For `Nc1ccc(COc2cccc(NC(=O)C3CCN(c4ccncc4)CC3)c2)cc1`, in that order: 25 µM and 10 µM.
Take `O=C(Nc1cccc(OCc2ccc(F)cc2)c1)C1CCN(c2ncccn2)CC1`: the “log Pe” value in series [12] and in [6] was “impermeable” in each case. In [7], this compound showed a pKa of 6. For the same compound, the Ki was 91.6 µM in series [1] and 26.8 µM in [2] (read-out: Ki).
For `O=C(Nc1cccc(OCc2cccc([N+](=O)[O-])c2)c1)C1CCN(c2ccncc2)CC1`, the Ki amounted to 6.73 µM in series [1] and 26.8 µM in series [2] (read-out: Ki).
`CC(C)N1CCC(C(=O)Nc2cccc(OCc3ccc(F)cc3)c2)CC1` yielded a pKa in series [7] of 9.4. Also, the Ki in [1] and in series [2] (read-out: Ki) was greater than 250 µM each time.
Regarding `O=C(Nc1cccc(OCc2cccc(Br)c2)c1)C1CCN(c2ccncc2)CC1`, the Ki in series [1] was found to be 6.31 µM; in series [2] (read-out: Ki), 20.9 µM.
Take `O=C(Nc1cccc(OCc2ccc(F)cc2F)c1)C1CCN(c2ccncc2)CC1`: the Ki in series [1] is 8.8 µM; in series [2] (read-out: Ki), 4.64 µM.
In the same order, the values of `CS(=O)(=O)c1cccc(COc2cccc(NC(=O)C3CCN(c4ccncc4)CC3)c2)c1` are 15.6 µM and 15.9 µM.
Take `O=C(Nc1cccc(OCc2ccc(F)cc2)c1)C1CCN(c2ccncc2)CC1`: in series [3], the log partition coefficient (logP) was found to be 5.1. Moreover, the 2aPTT in [4] stood at 59 µM. Also, the Ki in [8] is 68.7 µM; in [9], greater than 250 µM; in series [5] it was 71.6 µM; in [10], greater than 250 µM; in series [11], 0.014 µM. This compound also returned a pKa in [7] of 8.9.
Take `O=C(Nc1cccc(OCc2cc(F)cc(F)c2)c1)C1CCN(c2ccncc2)CC1`: in series [3], the logP came to 5.2. Further, in series [4], the 2aPTT was found to be 26.3 µM. Moreover, the Ki was greater than 250 µM in series [8]; greater than 250 µM in series [9]; 31.4 µM in series [5]; greater than 250 µM in series [10]; 0.031 µM in series [11]; 27 µM in series [1]. Also, the Ki in series [2] (read-out: Ki) worked out at 0.063 µM. Besides, in series [7], the pKa is 9.2.
`CS(=O)(=O)c1ccc(COc2cccc(NC(=O)C3CCN(c4ccncc4)CC3)c2)cc1`: in [3], the lipophilicity (logP) came to 4.9. Further, the 2aPTT in series [4] stood at 98.2 µM. The Ki is greater than 250 µM in series [5], 7.73 µM in [1] and 0.124 µM in [2] (read-out: Ki). This compound also came in with a pKa in [7] of 9.1.
As to `O=C(Nc1ccccc1OCc1cccc(F)c1)C1CCN(c2ccncc2)CC1`, the Ki in series [1] and in series [2] (read-out: Ki) was greater than 250 µM throughout.
On to `CS(=O)(=O)c1ccccc1COc1cccc(NC(=O)C2CCN(c3ccncc3)CC2)c1`, for which the values for the Ki in series [1] and in [2] (read-out: Ki) were 35.1 µM and 12.3 µM, respectively.
Consider `COc1cccc(COc2cccc(NC(=O)C3CCN(c4ccncc4)CC3)c2)c1`, for which the Ki came to 7.23 µM in series [1] and 1.15 µM in series [2] (read-out: Ki).
Take `O=C(Nc1cccc(OCc2ccc(Cl)cc2)c1)C1CCN(c2ccncc2)CC1`: the Ki in series [1] is 29.6 µM; in series [2] (read-out: Ki), 0.26 µM.
For `CN(C(=O)C1CCN(c2ccncc2)CC1)c1cccc(OCc2cccc(F)c2)c1`, in that order: 23.6 µM and greater than 250 µM.
`O=C(Nc1cccc(COc2cccc(F)c2)c1)C1CCN(c2ccncc2)CC1`: in series [13], the logD is 3.02. Moreover, the figures for the Ki in series [1] and in series [2] (read-out: Ki) were greater than 250 µM and 18.2 µM, respectively.
On to `O=C(Nc1cccc(OCCc2cccc(F)c2)c1)C1CCN(c2ccncc2)CC1`, for which the Ki in [1] is 2.14 µM; in [2] (read-out: Ki), 0.488 µM; in [2] (read-out: pKi (converted)) it was 18.2 µM.
Regarding `O=C(Nc1cccc(OCc2ccc(C(F)(F)F)cc2)c1)C1CCN(c2ccncc2)CC1`, the Ki worked out at 48.5 µM in series [1] and 3.4 µM in series [2] (read-out: Ki).
In the same order, the values of `COc1ccccc1COc1cccc(NC(=O)C2CCN(c3ccncc3)CC2)c1` are 16.4 µM and 1.3 µM.
In the same order, the values of `O=C(Nc1cccc(OCc2ccc(Br)cc2)c1)C1CCN(c2ccncc2)CC1` are 37.1 µM and 2.03 µM.
Take `Nc1cccc(COc2cccc(NC(=O)C3CCN(c4ccncc4)CC3)c2)c1`: the Ki came out at 36.1 µM in series [1] and 13.3 µM in [2] (read-out: Ki).
Turning to `O=C(Nc1cccc(OCc2ccc(F)cc2)c1)C1CCN(c2ccccn2)CC1`, the pKa in series [7] came out at 8.5. Moreover, the Ki was 78 µM in series [1] and greater than 250 µM in series [2] (read-out: Ki).
In the case of `CC(=N)N1CCC(C(=O)Nc2cccc(OCc3ccc(F)cc3)c2)CC1`, the Ki is 57.3 µM in [1] and greater than 250 µM in series [2] (read-out: Ki).
As for `O=C(Nc1cccc(OCc2ccccc2F)c1)C1CCN(c2ccncc2)CC1`, the log partition coefficient (logP) in [3] was determined as 4.9. The 2aPTT in [4] was 19.8 µM. Moreover, the Ki was greater than 250 µM in series [8]; 27 µM in series [9]; 71.6 µM in [5]; greater than 250 µM in series [10]; 0.09 µM in series [11]; 6.83 µM in series [1]. Moreover, in series [2] (read-out: Ki), the Ki was found to be 0.064 µM. This compound also yielded a pKa in [7] of 9.2.
On to `COc1cc(COc2cccc(NC(=O)C3CCN(c4ccncc4)CC3)c2)cc(OC)c1`, for which, in series [3], the logP turned out to be 4.9. Moreover, in series [4], the 2aPTT worked out at 200 µM. In addition, the values for the Ki in series [5], in [1] and in [2] (read-out: Ki) were 33.8 µM, 126 µM and 0.083 µM, respectively. The compound further yielded a pKa in series [7] of 8.9.
`O=C(Nc1cccc(OCc2ccc(F)cc2)c1)C1CCN(Cc2ccncc2)CC1`: the “log Pe” value in series [12] and in series [6] was “impermeable” throughout. Further, the pKa in [7] was 3.3. In addition, the results for the Ki in series [1] and in series [2] (read-out: Ki) were 47.1 µM and 15.3 µM, respectively.
On to `COc1ccc(COc2cccc(NC(=O)C3CCN(c4ccncc4)CC3)c2)cc1`, for which the values for the Ki in series [1] and in series [2] (read-out: Ki) were 11.1 µM and 2.03 µM, respectively.
In the case of `O=C(Nc1cccc(CCc2cccc(F)c2)c1)C1CCN(c2ccncc2)CC1`, in series [13], the logD was 3.58. Besides, the Ki in [1] was 44.1 µM; in [2] (read-out: Ki), 12.4 µM; in [2] (read-out: pKi (converted)) it was 12.3 µM.
Consider `O=C(Nc1cccc(OCc2ccc(F)cc2)c1)C1CCNCC1`, for which the pKa in series [7] stood at 9.8.
The compound `Nc1ccc(N2CCC(C(=O)Nc3cccc(OCc4ccc(F)cc4)c3)CC2)cc1` showed a pKa in series [7] of 3. Also, the figures for the Ki in [1] and in series [2] (read-out: Ki) were 63.5 µM and greater than 250 µM, respectively.
